This passage reports activation and Ki results from patent US11312721B2 (priority 2015, dated 2022).

Test [1] deals with T1, GABAA receptors (α5β2γ2) (Homo sapiens, UniProt P18507+P31644).
T1 construct: expressed in transfected cells
In words: Positive allosteric modulator activity: potentiation of EC20 GABA current in oocytes. The settings on record: read-out: GABA α5 functional potentiation. It is filed as cell-based. The procedure: On day 1, 1 ng/32 nL of GABAA α5β2γ2 cDNA was injected into one oocyte. Test starts on day 2. The cDNA injected to the oocytes was a mix of alpha, beta and gamma, their ratio is 1:1:10 (by weight) and the total weight of the mixed 3 subunits to be injected in one oocyte was 1 ng in 32 nl volume. The injected oocytes can also be tested on day 3. In such case, the cDNA amount injected to the oocytes should be reduced by 20%.
1). 8 oocytes were placed in 8 chambers of OpusXpress and superfused with Modified Barth's Saline (MBS) at 3 mL/min. Glass electrodes back-filled with 3M KCl (0.5-3 megaohms) were used.
1). Repeat the above steps 1), 2) and 3) in the control test.
2). […] Divide Itest by IGABA to obtain potentiation (%).
3). Discard all tested oocytes, new oocytes were used and the above steps 1) and 2) were repeated to test second concentration of the same compound. Each oocyte was used for only one concentration test for a single test compound. The steps were repeated for other test compounds.

Test [2] has as its target T2, α5β3γ2 GABAA receptors (Ltk cells) (Homo sapiens, UniProt P18507+P31644).
T2 construct: membranes
In words: Binding activity on GABAAR: inhibition of [3H]Ro15-1788 binding. On the procedure: Tissue culture and Membrane Preparation: The binding was performed on Ltk cells stably expressing GABAA receptors: α1β1γ2, α2β3γ2, α3β3γ2 and α5β3γ2 (provided by Merck Co., NJ, USA). Cells were seeded in 100 mm culture plates in DMEM/F12 medium containing 10% serum and antibiotics in 5% CO2 and allowed to grow for 1-2 days. GABAAR expression was then induced by dexamethasone as follows: 0.5 μM for 1 day for α5 containing and 2 μM for 3 days for α1, α2 and α3 containing GABAARs. After induction, cells were collected by scraping into Dulbecco's Phosphate buffered saline (DPBS, pH 7.4, Invitrogen, Carlsbad, Calif., USA) and centrifuged at 150×g for 10 min. The pellet was washed twice by re-suspension and centrifugation. The cell pellets from at least 5 different preps were combined, suspended in the binding assay buffer (50 mM KH2PO4; 1 mM EDTA; 0.2 M KCl, pH 7.4) and membranes prepared by sonication (3-5 times, 30 sec) using Branson Sonifier 150 (G. Heinmann, Germany). Protein content was determined using BCA assay (Bio-Rad Labs, Reinach, Switzerland) with Bovine Serum Albumin (Sigma Aldrich, St. Louis, Mo., USA) as the standard. Aliquots were prepared and stored at −20° C. for further use in binding assays.
Ligand Binding: Saturation binding curves were obtained by incubating membranes with increasing concentrations (0.01-8 nM) of [^3H]Ro15-1788 (Flumazepil, 75-85 Ci/mmol, PerkinElmer, MA, USA), with nonspecific binding measured in the presence of 10 μM diazepam.
All binding assays were performed for 1 h at 4° C. in assay buffer. The total assay volume was 0.5 ml containing 0.2 mg/ml protein for α5 and 0.4 mg/ml for α1, α2, and α3 containing GABAAR membranes. Incubations were terminated by filtration through GF/B filters using a 24-Cell Harvestor (Brandel, Gaithersburg, Md., USA) followed by 3 washes with ice-cold assay buffer. Filters were transferred to scintillation vials, 5 ml scintillation liquid added, vortex-mixed and kept in dark. Next day, radioactivity was obtained using a scintillation counter (Beckman Coulter, Brea, Calif., USA). All assays were performed in triplicate.
Data Analyses: Saturation and inhibition curves were obtained using GraphPad Prism software (GraphPad Software, Inc., CA, USA).

One may read the Ki as a measure of affinity in units of concentration, obtained from inhibition or displacement. The low end stands for higher affinity, the high end for lower affinity.

The structures appear in SMILES notation.

T2 sequence (P31644 32-462): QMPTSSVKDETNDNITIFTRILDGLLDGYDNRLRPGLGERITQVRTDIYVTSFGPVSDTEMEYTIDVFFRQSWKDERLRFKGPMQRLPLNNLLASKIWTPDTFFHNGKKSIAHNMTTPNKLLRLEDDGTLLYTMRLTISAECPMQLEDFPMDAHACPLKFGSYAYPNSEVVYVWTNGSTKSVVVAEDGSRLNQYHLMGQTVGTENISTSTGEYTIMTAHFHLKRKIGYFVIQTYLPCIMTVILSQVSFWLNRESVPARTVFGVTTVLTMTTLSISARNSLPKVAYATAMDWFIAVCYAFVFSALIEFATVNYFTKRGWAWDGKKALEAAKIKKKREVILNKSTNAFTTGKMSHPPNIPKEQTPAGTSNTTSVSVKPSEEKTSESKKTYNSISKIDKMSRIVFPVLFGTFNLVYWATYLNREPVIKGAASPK
T2 sequence (P28472 26-473 partner): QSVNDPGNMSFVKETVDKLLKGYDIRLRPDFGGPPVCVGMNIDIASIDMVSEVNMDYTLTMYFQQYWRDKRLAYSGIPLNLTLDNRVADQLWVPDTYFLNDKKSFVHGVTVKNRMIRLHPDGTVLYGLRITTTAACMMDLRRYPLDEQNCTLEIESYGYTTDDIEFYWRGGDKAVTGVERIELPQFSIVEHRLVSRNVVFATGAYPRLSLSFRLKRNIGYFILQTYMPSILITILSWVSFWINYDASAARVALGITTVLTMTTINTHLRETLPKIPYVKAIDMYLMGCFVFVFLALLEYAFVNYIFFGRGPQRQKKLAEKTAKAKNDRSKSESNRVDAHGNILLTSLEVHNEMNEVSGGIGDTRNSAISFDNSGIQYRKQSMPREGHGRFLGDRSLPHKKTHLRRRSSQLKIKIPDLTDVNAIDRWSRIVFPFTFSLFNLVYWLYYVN
T2 sequence (P18507 40-475): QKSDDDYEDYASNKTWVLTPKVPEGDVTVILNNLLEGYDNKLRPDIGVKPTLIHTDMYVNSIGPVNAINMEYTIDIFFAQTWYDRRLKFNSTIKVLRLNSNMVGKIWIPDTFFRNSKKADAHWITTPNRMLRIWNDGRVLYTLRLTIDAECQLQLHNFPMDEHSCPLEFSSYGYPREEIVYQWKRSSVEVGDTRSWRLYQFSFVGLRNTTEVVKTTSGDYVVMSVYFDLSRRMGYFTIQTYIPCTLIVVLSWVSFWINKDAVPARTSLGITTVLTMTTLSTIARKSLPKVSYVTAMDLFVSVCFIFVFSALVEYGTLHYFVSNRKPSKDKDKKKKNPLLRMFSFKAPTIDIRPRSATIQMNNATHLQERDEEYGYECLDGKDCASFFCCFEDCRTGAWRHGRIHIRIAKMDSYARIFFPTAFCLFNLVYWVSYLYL
T1 sequence (P31644 32-462): as the sequence (P31644 32-462) above
T1 sequence (P47870 25-512 partner limits assumed): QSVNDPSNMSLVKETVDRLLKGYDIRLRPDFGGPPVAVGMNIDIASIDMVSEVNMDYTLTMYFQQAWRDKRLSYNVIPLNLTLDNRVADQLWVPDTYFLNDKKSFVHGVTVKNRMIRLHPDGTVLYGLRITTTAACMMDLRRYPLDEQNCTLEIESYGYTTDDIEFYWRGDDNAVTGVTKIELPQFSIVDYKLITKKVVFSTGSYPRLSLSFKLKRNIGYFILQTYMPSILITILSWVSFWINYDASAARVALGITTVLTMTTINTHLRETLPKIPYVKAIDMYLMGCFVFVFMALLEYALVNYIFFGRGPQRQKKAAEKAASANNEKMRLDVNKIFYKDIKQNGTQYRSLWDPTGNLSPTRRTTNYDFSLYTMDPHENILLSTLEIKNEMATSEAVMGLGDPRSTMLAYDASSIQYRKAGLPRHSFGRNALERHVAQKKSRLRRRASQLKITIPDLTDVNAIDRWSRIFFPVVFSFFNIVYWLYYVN
T1 sequence (P18507 40-475): as the sequence (P18507 40-475) above

Take `Cc1noc(-c2ncn3c2Cc2c(C)nnn2-c2cc(F)ccc2-3)n1` [Compound 110]: the activation at 0.1 µM in test [1] was 20 to 49%.

In the case of `CCOC(=O)c1ncn2c1Cc1c(Cc3cccnc3)nnn1-c1cc(C)ccc1-2` [Compound 111], the activation at 0.1 µM in test [1] was 20 to 49%. Consider `Cc1nnn2c1Cc1c(C(=O)OCC(C)(C)C)ncn1-c1ccc(F)cc1-2` [Compound 113], for which the activation at 0.1 µM in test [1] was over 50%. For `Cc1nnn2c1Cc1c(C(=O)OCC(F)(F)F)ncn1-c1ccc(F)cc1-2` [Compound 114], in test [1], the activation at 0.1 µM is over 50%. The same measure, in the same setting: in the case of `COc1ccc2c(c1)-c1nnc(COc3ccccc3)n1Cc1c(C(=O)OC(C)C)ncn1-2` [Compound 120] it was 20 to 49%; in that of `Cc1noc(-c2ncn3c2Cc2c(C)nnn2-c2ccccc2-3)n1` [Compound 126], 20 to 49%; in that of `Cc1nc(-c2ncn3c2Cc2c(C)nnn2-c2ccccc2-3)no1` [Compound 127], 20 to 49%. `COCc1nnc2n1Cc1c(-c3nc(C)no3)ncn1-c1ccc(OC)cc1-2` [Compound 128]: the activation at 0.1 µM in test [1] lay within 20 to 49%. For `COCc1nnc2n1Cc1c(-c3nc(C(C)C)no3)ncn1-c1ccc(OC)cc1-2` [Compound 130], the activation at 0.1 µM in test [1] was 20 to 49%.

In the case of `Cc1nnn2c1Cc1c(-c3nc(C(C)C)no3)ncn1-c1ccccc1-2` [Compound 132], in test [1], the activation at 0.1 µM was in the range of 20 to 49%. The same measure, in the same setting: the figure for `CCOC(=O)c1ncn2c1Cn1c(COc3ccccc3)nnc1-c1cc(F)ccc1-2` [Compound 137] is 20 to 49%; for `Cc1nc(-c2ncn3c2Cc2c(C)nnn2-c2cc(F)ccc2-3)no1` [Compound 145] it is over 50%; for `CC(C)c1nc(-c2ncn3c2Cn2c(COc4ccccc4)nnc2-c2cc(F)ccc2-3)no1` [Compound 147] it is 20 to 49%. On to `Cc1nc(-c2ncn3c2Cn2c(COc4ccccc4)nnc2-c2cc(F)ccc2-3)no1` [Compound 148], for which, in test [1], the activation at 0.1 µM was in the range of 20 to 49%. The same measure, in the same setting: in the case of `Cc1nnn2c1Cc1c(-c3noc(C(C)C)n3)ncn1-c1ccc(F)cc1-2` [Compound 149] it was over 50%.

For the compound `Cc1nnn2c1Cc1c(C(=O)OC(C)C)ncn1-c1ccccc1-2` [Compound 153], the activation at 0.1 µM in test [1] is 20 to 49%. In the case of `CCc1nc(-c2ncn3c2Cc2c(C)nnn2-c2cc(F)ccc2-3)no1` [Compound 155], in test [1], the activation at 0.1 µM was 20 to 49%. On to `CCc1nc(-c2ncn3c2Cn2c(COc4ccccc4)nnc2-c2cc(F)ccc2-3)no1` [Compound 158], for which the activation at 0.1 µM in test [1] was in the range of 20 to 49%. On to `Cc1nnn2c1Cc1c(-c3noc(C(C)(C)C)n3)ncn1-c1ccc(F)cc1-2` [Compound 160], for which the activation at 0.1 µM in test [1] is over 50%. Consider `COc1ccc2c(c1)-c1nnc(COc3ccccc3)n1Cc1c(-c3noc(C)n3)ncn1-2` [Compound 162], for which the activation at 0.1 µM in test [1] was in the range of 20 to 49%.

Regarding `COc1ccc2c(c1)-c1nnc(COc3ccc(F)cc3)n1Cc1c(-c3noc(C)n3)ncn1-2` [Compound 163], in test [1], the activation at 0.1 µM lay within 20 to 49%. `COc1ccc2c(c1)-c1nnc(COc3ccccc3)n1Cc1c(-c3noc(C(C)C)n3)ncn1-2` [Compound 171]: in test [1], the activation at 0.1 µM was over 50%. As for `COc1ccc2c(c1)-c1nnc(COc3ccc(F)cc3)n1Cc1c(-c3noc(C(C)C)n3)ncn1-2` [Compound 172], the activation at 0.1 µM in test [1] is over 50%. Same read-out and setting: the figure for `CCOCc1nnc2n1Cc1c(-c3noc(C(C)C)n3)ncn1-c1ccc(OC)cc1-2` [Compound 173] is over 50%. On to `COc1ccc2c(c1)-c1nnc(COc3ccccc3F)n1Cc1c(-c3noc(C(C)C)n3)ncn1-2` [Compound 174], for which the activation at 0.1 µM in test [1] was over 50%. For `COc1ccc2c(c1)-c1nnc(COc3ccccc3Cl)n1Cc1c(-c3noc(C(C)C)n3)ncn1-2` [Compound 175], the activation at 0.1 µM in test [1] lay within 20 to 49%.

On to `COc1ccc2c(c1)-c1nnc(COc3cccnc3)n1Cc1c(-c3noc(C(C)C)n3)ncn1-2` [Compound 176], for which, in test [1], the activation at 0.1 µM was over 50%. Consider `COc1ccc2c(c1)-c1nnc(COc3cccc4ccccc34)n1Cc1c(-c3noc(C(C)C)n3)ncn1-2` [Compound 177], for which the activation at 0.1 µM in test [1] was over 50%. For `COc1ccc2c(c1)-c1nnc(COC3CCCC3)n1Cc1c(-c3noc(C(C)C)n3)ncn1-2` [Compound 178], in test [1], the activation at 0.1 µM was over 50%.

Consider `COc1ccc2c(c1)-c1nnc(COc3cccc(F)c3)n1Cc1c(-c3noc(C(C)C)n3)ncn1-2` [Compound 179], for which the activation at 0.1 µM in test [1] is over 50%.

Consider `COc1ccc2c(c1)-n1nnc(COc3ccc(F)cc3)c1Cc1c(-c3noc(C)n3)ncn1-2` [Compound 180], for which the activation at 0.1 µM in test [1] was 20 to 49%. In addition, the inhibitory constant (Ki) in test [2] was under 99 nM. On to `COc1ccc2c(c1)-n1nnc(COc3ccccc3F)c1Cc1c(-c3noc(C)n3)ncn1-2` [Compound 181], for which the activation at 0.1 µM in test [1] fell in the range of 20 to 49%. In addition, in test [2], the Ki is under 99 nM. In the case of `COc1ccc2c(c1)-n1nnc(COc3ccccc3)c1Cc1c(-c3noc(C)n3)ncn1-2` [Compound 182], the activation at 0.1 µM in test [1] fell in the range of 20 to 49%. Also, in test [2], the inhibition constant (Ki) is under 99 nM. Turning to `COc1ccc2c(c1)-c1nnc(COCc3cccc(F)c3)n1Cc1c(-c3noc(C(C)C)n3)ncn1-2` [Compound 183], in test [1], the activation at 0.1 µM lay in the range of 20 to 49%. In addition, the Ki in test [2] is under 99 nM. For the compound `COc1ccc2c(c1)-c1nnc(COCc3ccccc3F)n1Cc1c(-c3noc(C(C)C)n3)ncn1-2` [Compound 184], the activation at 0.1 µM in test [1] is 20 to 49%. Moreover, in test [2], the inhibitory constant (Ki) is under 99 nM. `CC(C)c1nc(-c2ncn3c2Cn2c(COc4cccnc4)nnc2-c2cc(F)ccc2-3)no1` [Compound 185]: in test [1], the activation at 0.1 µM was over 50%. This compound also had a Ki in test [2] of under 99 nM. On to `COCc1nnc2n1Cc1c(-c3noc(C(C)C)n3)ncn1-c1ccc(F)cc1-2` [Compound 186], for which, in test [1], the activation at 0.1 µM was over 50%. In test [2], the Ki was under 99 nM.

For the compound `CCOCc1nnc2n1Cc1c(-c3noc(C(C)C)n3)ncn1-c1ccc(F)cc1-2` [Compound 187], in test [1], the activation at 0.1 µM was 20 to 49%. The compound further yielded a Ki in test [2] of under 99 nM. On to `CC(C)c1nc(-c2ncn3c2Cn2c(COc4cccc(F)c4)nnc2-c2cc(F)ccc2-3)no1` [Compound 188], for which the activation at 0.1 µM in test [1] was in the range of 20 to 49%. Moreover, in test [2], the inhibition constant (Ki) was under 99 nM.

Take `CC(C)c1nc(-c2ncn3c2Cn2c(COc4ccc(F)cc4)nnc2-c2cc(F)ccc2-3)no1` [Compound 189]: the activation at 0.1 µM in test [1] lay within 20 to 49%. This compound showed a Ki in test [2] of under 99 nM. In the case of `COc1ccc2c(c1)-c1nnc(COc3ccc(F)cc3)n1Cc1c(C#N)ncn1-2` [Compound 191], the activation at 0.1 µM in test [1] was 20 to 49%. For the compound `CCc1nc(-c2ncn3c2Cc2c(Cc4ccccc4)nnn2-c2cc(OC)ccc2-3)no1` [Compound 194], in test [1], the activation at 0.1 µM is over 50%. The Ki in test [2] was under 99 nM. With `CCc1nc(-c2ncn3c2Cc2c(Cc4ccc(F)cc4)nnn2-c2cc(OC)ccc2-3)no1` [Compound 195], the activation at 0.1 µM in test [1] was 20 to 49%. For the same compound, the Ki in test [2] was under 99 nM. With `COc1ccc2c(c1)-c1nnc(COc3cccc(F)c3)n1Cc1c(C#N)ncn1-2` [Compound 196], the activation at 0.1 µM in test [1] was 20 to 49%. For the same compound, in test [2], the Ki was under 99 nM. For the compound `COCc1nnc2n1Cc1c(-c3nc(C)no3)ncn1-c1ccc(Cl)cc1-2` [Compound 198], the activation at 0.1 µM in test [1] is 20 to 49%. For the same compound, the Ki in test [2] is under 99 nM. For `FC(F)=Cc1ncn2c1Cn1c(COc3ccccc3)nnc1-c1cc(Cl)ccc1-2` [Compound 199], the activation at 0.1 µM in test [1] is 20 to 49%. The same compound yielded a Ki in test [2] of under 99 nM. Regarding `Clc1ccc2c(c1)-c1nnc(COc3ccccc3)n1Cc1c(Br)ncn1-2` [Compound 202], in test [1], the activation at 0.1 µM was in the range of 20 to 49%. The same compound gave a Ki in test [2] of under 99 nM.

`COc1ccc2c(c1)-n1nnc(Cc3ccccc3)c1Cc1c(Br)ncn1-2` [Compound 212]: the activation at 0.1 µM in test [1] lay within 20 to 49%. In the case of `COc1ccc2c(c1)-n1nnc(Cc3ccc(F)cc3)c1Cc1c(Br)ncn1-2` [Compound 213], in test [1], the activation at 0.1 µM lay within 20 to 49%.
